Data set [1] concerns the target Cytochrome P450 2D6 (Homo sapiens, UniProt P10635). Description: Inhibition of CYP2D6 in human liver microsomes incubated for 15 to 40 mins in presence of NADPH. In kind it is ADME, Microsome. In general terms: Liver microsomes are a subcellular fraction often used to study metabolism.
A short description of data set [2]: Cytotoxicity against human MT4 cells assessed as cell growth inhibition incubated for 5 days by MTT assay. It is filed as toxicity, cell-based. To be noted: time 5 day.
A short description of data set [3]: Fold resistance, ratio of EC50 for antiviral activity against drug-resistant HIV-1 Y188L mutant infected in human MT4 cells to EC50 for antiviral activity against […] HIV-1 infected in human MT4 cells. In kind it is functional.
In data set [4] the test system is Human immunodeficiency virus 1. Description: Antiviral activity against drug-resistant HIV-1 Y188L mutant infected in human MT4 cells assessed as reduction in virus-induced cytopathic effect incubated for 5 days by MTT assay. In kind it is functional, organism-based. To be noted: Human immunodeficiency virus 1, Y188L mutant, MT4, 120 h. A general note: Protection from cytopathic effect is a common read-out in antiviral testing.

Data set [5] can be described thus: Fold resistance, ratio of EC50 for antiviral activity against drug-resistant HIV-1 L100I mutant infected in human MT4 cells to EC50 for antiviral activity against […] HIV-1 infected in human MT4 cells. In kind it is functional.
For data set [6], the system named is Human immunodeficiency virus 1. Description: Antiviral activity against drug-resistant HIV-1 L100I mutant infected in human MT4 cells assessed as reduction in virus-induced cytopathic effect incubated for 5 days by MTT assay. In kind it is functional, organism-based. To be noted: Human immunodeficiency virus 1, L100I mutant, MT4, 120 h.
Data set [7] deals with Human immunodeficiency virus 1. Description: Antiviral activity against drug-resistant HIV-1 K103 N mutant infected in human MT4 cells assessed as reduction in virus-induced cytopathic effect incubated for 5 days by MTT assay. In kind it is functional, organism-based. To be noted: Human immunodeficiency virus 1, K103 N mutant, MT4, 120 h.
Data set [8] has as its target Human immunodeficiency virus type 1 reverse transcriptase (Human immunodeficiency virus 1, UniProt Q72547). Description: Inhibition of recombinant wild-type p66/p51 HIV-1 reverse transcriptase incubated for 40 mins by picogreen dye-based spectrofluorometric analysis.
The nature of data set [9]: Fold resistance, ratio of EC50 for antiviral activity against drug-resistant HIV-1 K103 N mutant infected in human MT4 cells to EC50 for antiviral activity against […] HIV-1 infected in human MT4 cells. In kind it is functional.
Data set [10] can be described thus: Selectivity index, ratio of CC50 for human MT4 cells to EC50 for antiviral activity against NNRTI resistant HIV-1 infected in human MT4 cells. It is filed as toxicity, cell-based. To be noted: read-out: Ratio CC50/EC50.
Data set [11] has as its system Human immunodeficiency virus 1. Description: Antiviral activity against […] HIV-1 infected in human MT4 cells assessed as reduction in virus-induced cytopathic effect incubated for 5 days by MTT assay. In kind it is functional, organism-based. To be noted: Human immunodeficiency virus 1, MT4, 120 h.
Data set [12] can be described thus: Fold resistance, ratio of EC50 for antiviral activity against drug-resistant HIV-1 E138K mutant infected in human MT4 cells to EC50 for antiviral activity against […] HIV-1 infected in human MT4 cells. It is filed as functional.
The test system of data set [13] is Human immunodeficiency virus 1. Description: Antiviral activity against drug-resistant HIV-1 E138K mutant infected in human MT4 cells assessed as reduction in virus-induced cytopathic effect incubated for 5 days by MTT assay. It is filed as functional, organism-based. To be noted: Human immunodeficiency virus 1, E138K mutant, MT4, 120 h.
Data set [14] is described as follows: Fold resistance, ratio of EC50 for antiviral activity against drug-resistant HIV-1 Y181C mutant infected in human MT4 cells to EC50 for antiviral activity against […] HIV-1 infected in human MT4 cells. It is filed as functional.
The subject of data set [15] is Human immunodeficiency virus 1. Description: Antiviral activity against drug-resistant HIV-1 Y181C mutant infected in human MT4 cells assessed as reduction in virus-induced cytopathic effect incubated for 5 days by MTT assay. It is filed as functional, organism-based. To be noted: Human immunodeficiency virus 1, Y181C mutant, MT4, 120 h.

A word on the IC50: it is the concentration at which inhibition is half-maximal. In general, CC50 refers to the concentration giving 50% cytotoxicity. What is called EC50 is the concentration at which the effect is half-maximal.

Sequence of Cytochrome P450 2D6 (P10635 whole entry): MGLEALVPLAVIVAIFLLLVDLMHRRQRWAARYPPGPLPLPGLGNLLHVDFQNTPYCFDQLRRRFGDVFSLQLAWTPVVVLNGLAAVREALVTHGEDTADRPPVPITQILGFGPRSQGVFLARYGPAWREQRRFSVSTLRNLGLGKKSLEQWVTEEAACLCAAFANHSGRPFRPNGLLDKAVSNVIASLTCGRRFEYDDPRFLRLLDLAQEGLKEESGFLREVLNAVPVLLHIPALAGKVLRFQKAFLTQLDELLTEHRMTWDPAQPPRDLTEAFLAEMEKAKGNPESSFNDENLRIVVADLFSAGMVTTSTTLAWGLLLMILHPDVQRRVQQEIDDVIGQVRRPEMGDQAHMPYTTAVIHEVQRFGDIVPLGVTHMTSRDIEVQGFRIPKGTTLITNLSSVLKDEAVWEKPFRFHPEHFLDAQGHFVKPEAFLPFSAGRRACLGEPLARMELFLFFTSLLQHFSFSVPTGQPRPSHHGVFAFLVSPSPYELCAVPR

Take `COc1ccc2c(c1)[C@]13CCCC[C@@H]1[C@H](C2)N(C)CC3` [DEXTROMETHORPHAN]: in [1], the IC50 amounted to 0.0408 µM.
As to `Cc1c(C(C#N)c2ccccc2Cl)nc(SC(C)C)[nH]c1=O` (stereo not drawn), in data set [2], the cytotoxic concentration (CC50) at 120 h stood at 89.2 µM. The “Ratio EC50” value in [3] is given as 807; in [5] it was 26; in [9], 146; in data set [12] it was 1; in data set [14], 51. The EC50 in data set [4] came out at 54.9 µM; in data set [6], 1.78 µM; in data set [7], 9.91 µM; in data set [11], 0.068 µM; in [13], 0.08 µM; in [15], 3.47 µM. The half-inhibitory concentration (IC50) in data set [8] was 0.079 µM. Besides, the selectivity ratio in [10] was 1320.
As to `Cc1c(C(C#N)c2cc(Cl)cc(Cl)c2)nc(SC(C)C)[nH]c1=O` (stereo not drawn), the CC50 at 120 h in data set [2] came to 28.9 µM. Further, the “Ratio EC50” value in data set [3] is listed as greater than 44; in data set [5] it was greater than 20; in data set [9], greater than 44; in data set [12], 6; in data set [14], 17. Moreover, the concentration for a half-maximal effect (EC50) was greater than 28.9 µM in data set [4]; greater than 13.2 µM in [6]; greater than 28.9 µM in [7]; 0.66 µM in data set [11]; 4.22 µM in data set [13]; 11.4 µM in data set [15]. The IC50 in [8] came to 0.479 µM. For the same molecule, the selectivity ratio in data set [10] is 44.
In the case of `Cc1c(C(C#N)c2cc(F)cc(Cl)c2)nc(SC(C)C)[nH]c1=O` (stereo not drawn), the CC50 at 120 h in data set [2] is 139 µM. Moreover, the “Ratio EC50” value in data set [3] is greater than 365; in data set [5], 50; in data set [9] it was 124; in [12] it was 5; in [14] it was 33. Also, the 50% effective concentration (EC50) is greater than 139 µM in data set [4]; 19.1 µM in data set [6]; 47.2 µM in data set [7]; 0.38 µM in [11]; 1.99 µM in data set [13]; 12.5 µM in [15]. Moreover, in data set [8], the IC50 is 0.716 µM. In addition, the selectivity ratio in data set [10] is 363.
